The species named for one data set is Homo sapiens. Description: Modulation of p-glycoprotein in human MDA435/LCC6MDR cells assessed as ratio of IC50 for paclitaxel in absence of drug to IC50 for paclitaxel in presence of 1 uM of drug after 5 days by MTS assay. The format is cell-based.
A short description of data set [1]: Cytotoxicity against human MDA435/LCC6MDR cells assessed as cell survival at 1 uM after 3 days by MTS/PMS assay. The class given is ADME, cell-based. The conditions noted are these: 72 h.
Data set [2] is described as follows: Cytotoxicity against human MDA435/LCC6 cells assessed as cell survival at 1 uM after 3 days by MTS/PMS assay. The note with it: mda-435/lcc6, 72 h. The class given is cell-based.
Data set [3] can be described thus: Solubility of the compound in phosphate buffer at pH 7.4 by capillary electrophoresis system. The class given is physicochemical.

≈ marks a conversion by molar mass, not a printed value.

As for `COc1ccc(C2=C(c3ccc(OC)c(OC)c3)C(=O)N(CC(=O)c3cc(Br)c(OCc4ccccc4)cc3OCCO)C2=O)cc1OC`, in the data set listed under Homo sapiens, the Ratio IC50 amounted to 21.4. The Activity result in data set [1] and in data set [2] was “Non-toxic” in each case.

Take `COc1ccc(C2=C(c3ccc(OC)c(OC)c3)C(=O)N(C(=O)Nc3ccc4c(c3)C(=O)OC4)C2=O)cc1OC`: the Ratio IC50 in the data set listed under Homo sapiens amounted to 1.1. Besides, the Activity result in data set [1] and in data set [2] was “Non-toxic” in each case.

For the molecule `CCCCC1OC(=O)c2cc(NC(=O)N3C(=O)C(c4ccc(OC)c(OC)c4)=C(c4ccc(OC)c(OC)c4)C3=O)ccc21` (stereo not drawn), the Ratio IC50 in the data set filed under Homo sapiens was found to be 2.4. Also, the Activity entry in data set [1] and in data set [2] was “Non-toxic” throughout.

On to `COc1ccc(C2=C(c3ccc(OC)c(OC)c3)C(=O)N(C(=O)N3CCN(CC(=O)c4ccc(OCc5ccccc5)c(OC)c4)CC3)C2=O)cc1OC`, for which the Ratio IC50 in the data set listed under Homo sapiens amounted to 5.4. The Activity entry in data set [1] and in data set [2] was “Non-toxic” throughout.

With `COc1ccc(C2=C(c3ccc(OC)c(OC)c3)C(=O)N(C(=O)c3ccc(OCc4ccccc4)c(OC)c3)C2=O)cc1OC`, the Activity result in data set [1] and in data set [2] was “Non-toxic” throughout. In addition, the solubility in data set [3] stood at 0.405 µg/mL (≈ 0.664 µM).

With `COc1ccc(C2=C(c3ccc(OC)c(OC)c3)C(=O)N(C(=O)N3CCN(CC(=O)c4ccc(S(C)(=O)=O)cc4)CC3)C2=O)cc1OC`, the Ratio IC50 in the data set filed under Homo sapiens worked out at 1. Further, the Activity entry in data set [1] and in data set [2] was “Non-toxic” throughout.

(Values after ChEMBL document CHEMBL3600356, “Optimization of permethyl ningalin B analogs as P-glycoprotein inhibitors” (Bioorg Med Chem, 2015).)
